Read-outs that look alike come from different tables or passages of the source.

This passage reports IC50 results from US20230082430A1 (C4 Therapeutics, Inc., priority 2019, published 2023).

For this assay, the system named is NCIH929.1 cells. Put plainly: Cell viability assay for Table 2 (CellTiter-Glo 2.0, ATP quantification, 96 hr). The class given is cell-based. To be noted: NCIH929.1 cell viability, 96 hr, top concentration 1 μM, 14 points half log titration, read-out: IC50. An excerpt:
Cell Viability Assay for Table 2
CellTiter-Glo® 2.0 Assay was purchased from Promega (Madison, Wis., USA). NCIH929.1 cell line was purchased from ATCC (Manassas, Va., USA). Cell culture flasks and 384-well microplates were acquired from VWR (Radnor, Pa., USA).
(In general: Cellular ATP, detected with luciferase, serves as a proxy for viable cell number.)

Broadly, the IC50 is the point on the concentration scale where inhibition reaches its midpoint. For `CC(C)(C)OC(=O)N1CCC(n2cc(Cc3ccc4c5c(cccc35)C(=O)N4C3CCC(=O)NC3=O)cn2)CC1` (racemic) [Compound 140, tert-butyl 4-(4-((1-(2,6-dioxopiperidin-3-yl)-2-oxo-1,2-dihydrobenzo[cd]indol-6-yl)methyl)-1H-pyrazol-1-yl)piperidine-1-carboxylate], under “96 h”, the concentration for half-maximal inhibition (IC50) was under 1 nM.

Turning to `N#Cc1ccc(N2CCN(Cc3ccc(Cc4ccc5c6c(cccc46)C(=O)N5C4CCC(=O)NC4=O)cc3)CC2)c(F)c1` (racemic) [Compound 183, 4-[4-[[4-[[1-(2,6-dioxo-3-piperidyl)-2-oxo-benzo[cd]indol-6-yl]methyl]phenyl]methyl]piperazin-1-yl]-3-fluoro-benzonitrile], where the note is “96 h”, the half-inhibitory concentration (IC50) was under 1 nM.

Regarding `O=C1CCC(N2C(=O)c3cccc4c(Cc5ccc(CN6CCOCC6)cc5)cnc2c34)C(=O)N1` (racemic) [Compound 221, 3-[20-[[4-(morpholinomethyl)phenyl]methyl]-25-oxo-27,30-diazatricyclododeca-(2),1(18),7(20),19(21),22(27)-pentaen-30-yl]piperidine-2,6-dione], the IC50 (96 h) is under 1 nM.

For `O=C1CCC(N2C(=O)c3cccc4c(Cc5ccc(CN6CCC7(CCCO7)CC6)nc5)ccc2c34)C(=O)N1` (racemic) [Compound 268, 3-[6-[[6-(1-oxa-8-azaspiro[4.5]decan-8-ylmethyl)-3-pyridyl]methyl]-2-oxo-benzo[cd]indol-1-yl]piperidine-2,6-dione], the IC50 (96 h) was under 1 nM.

`CC1(C(=O)N2CCC(n3cc(Cc4ccc5c6c(cccc46)C(=O)N5C4CCC(=O)NC4=O)cn3)CC2)CCC1` (single isomer, unassigned) [Compound 67, 3-[6-[[1-[1-(1-methylcyclobutanecarbonyl)-4-piperidyl]pyrazol-4-yl]methyl]-2-oxo-benzo[cd]indol-1-yl]piperidine-2,6-dione]: the half-inhibitory concentration (IC50) (96 h) was under 1 nM.

For `CC1(C(=O)N2CCC(n3cc(Cc4ccc5c6c(cccc46)C(=O)N5C4CCC(=O)NC4=O)cn3)CC2)CCC1` (single isomer, unassigned) [Compound 68, 3-[6-[[1-[1-(1-methylcyclobutanecarbonyl)-4-piperidyl]pyrazol-4-yl]methyl]-2-oxo-benzo[cd]indol-1-yl]piperidine-2,6-dione], the concentration for half-maximal inhibition (IC50) is under 1 nM.

As to `N#Cc1ccc(N2CCN(Cc3cnn(Cc4ccc5c6c(cccc46)C(=O)N5C4CCC(=O)NC4=O)c3)CC2)c(F)c1` (single isomer, unassigned) [Compound 129, 4-[4-[[1-[[1-[2,6-dioxo-3-piperidyl]-2-oxo-benzo[cd]indol-6-yl]methyl]pyrazol-4-yl]methyl]piperazin-1-yl]-3-fluoro-benzonitrile], the IC50 (96 h) is under 1 nM.

For the compound `N#Cc1ccc(N2CCN(Cc3cnn(Cc4ccc5c6c(cccc46)C(=O)N5C4CCC(=O)NC4=O)c3)CC2)c(F)c1` (single isomer, unassigned) [Compound 130, 4-[4-[[1-[[1-[2,6-dioxo-3-piperidyl]-2-oxo-benzo[cd]indol-6-yl]methyl]pyrazol-4-yl]methyl]piperazin-1-yl]-3-fluoro-benzonitrile], the concentration for half-maximal inhibition (IC50) was under 1 nM.

As for `CC(C)(C)OC(=O)N1CCC(n2cc(Cc3ccc4c5c(cccc35)C(=O)N4C3CCC(=O)NC3=O)cn2)CC1` (single isomer, unassigned) [Compound 141, tert-butyl 4-[4-[[1-[2,6-dioxo-3-piperidyl]-2-oxo-benzo[cd]indol-6-yl]methyl]pyrazol-1-yl]piperidine-1-carboxylate], for the setting “96 h”, the concentration for half-maximal inhibition (IC50) is under 1 nM.

`CC(C)(C)OC(=O)N1CCC(n2cc(Cc3ccc4c5c(cccc35)C(=O)N4C3CCC(=O)NC3=O)cn2)CC1` (single isomer, unassigned) [Compound 142, tert-butyl 4-[4-[[1-[2,6-dioxo-3-piperidyl]-2-oxo-benzo[cd]indol-6-yl]methyl]pyrazol-1-yl]piperidine-1-carboxylate]: the half-maximal inhibitory concentration (IC50) is under 1 nM.

Take `CC(c1cnn(C2CCN(C(=O)C3(C)CCC3)CC2)c1)c1ccc2c3c(cccc13)C(=O)N2C1CCC(=O)NC1=O` (single isomer, unassigned) [Compound 148, 3-(6-(1-(1-(1-(1-methylcyclobutane-1-carbonyl)piperidin-4-yl)-1H-pyrazol-4-yl)ethyl)-2-oxobenzo[cd]indol-1(2H)-yl)piperidine-2,6-dione]: the IC50 (96 h) is under 1 nM.

For `CC(c1cnn(C2CCN(C(=O)C3(C)CCC3)CC2)c1)c1ccc2c3c(cccc13)C(=O)N2C1CCC(=O)NC1=O` (single isomer, unassigned) [Compound 149, 3-(6-(1-(1-(1-(1-methylcyclobutane-1-carbonyl)piperidin-4-yl)-1H-pyrazol-4-yl)ethyl)-2-oxobenzo[cd]indol-1(2H)-yl)piperidine-2,6-dione], the IC50 is under 1 nM.

On to `O=C1CCC(N2C(=O)c3cccc4c(Cc5ccc(CN6CCN(S(=O)(=O)CC(F)(F)F)CC6)cc5)ccc2c34)C(=O)N1` (single isomer, unassigned) [Compound 159, 3-(2-Oxo-6-{4-[4-(2,2,2-trifluoro-ethanesulfonyl)-piperazin-1-ylmethyl]-benzyl}-2H-benzo[cd]indol-1-yl)-piperidine-2,6-dione], for which the IC50 (96 h) was under 1 nM.

In the case of `O=C1CCC(N2C(=O)c3cccc4c(Cc5ccc(CN6CCN(S(=O)(=O)CC(F)(F)F)CC6)cc5)ccc2c34)C(=O)N1` (single isomer, unassigned) [Compound 160, 3-(2-Oxo-6-{4-[4-(2,2,2-trifluoro-ethanesulfonyl)-piperazin-1-ylmethyl]-benzyl}-2H-benzo[cd]indol-1-yl)-piperidine-2,6-dione], the IC50 is under 1 nM.

With `O=C1CCC(N2C(=O)c3cccc4c(Cc5cnn(C6CCN(C7CCCC78CCC8)CC6)c5)ccc2c34)C(=O)N1` (single isomer, unassigned) [Compound 178, 3-[2-oxo-6-[[1-[1-[spiro[3.4]octan-8-yl]-4-piperidyl]pyrazol-4-yl]methyl]benzo[cd]indol-1-yl]piperidine-2,6-dione], the IC50 (96 h) is under 1 nM.

For the compound `O=C1CCC(N2C(=O)c3cccc4c(Cc5cnn(C6CCN(C7CCCC78CCC8)CC6)c5)ccc2c34)C(=O)N1` (single isomer, unassigned) [Compound 179, 3-[2-oxo-6-[[1-[1-[spiro[3.4]octan-8-yl]-4-piperidyl]pyrazol-4-yl]methyl]benzo[cd]indol-1-yl]piperidine-2,6-dione], the IC50 was under 1 nM.

In the case of `N#Cc1ccc(N2CCN(Cc3ccc(Cc4ccc5c6c(cccc46)C(=O)N5C4CCC(=O)NC4=O)cc3)CC2)c(F)c1` (single isomer, unassigned) [Compound 184, 4-(4-(4-((1-(2,6-dioxopiperidin-3-yl)-2-oxo-1,2-dihydrobenzo[cd]indol-6-yl)methyl)benzyl)piperazin-1-yl)-3-fluorobenzonitrile], the IC50 (96 h) is under 1 nM.

For `N#Cc1ccc(N2CCN(Cc3ccc(Cc4ccc5c6c(cccc46)C(=O)N5C4CCC(=O)NC4=O)cc3)CC2)c(F)c1` (single isomer, unassigned) [Compound 185, 4-(4-(4-((1-(2,6-dioxopiperidin-3-yl)-2-oxo-1,2-dihydrobenzo[cd]indol-6-yl)methyl)benzyl)piperazin-1-yl)-3-fluorobenzonitrile], the IC50 is under 1 nM.

Regarding `CC1(CN2CCC(n3cc(Cc4ccc5c6c(cccc46)C(=O)N5C4CCC(=O)NC4=O)cn3)C(F)(F)C2)CCC1` (single isomer, unassigned) [Compound 186, 3-[6-[[1-[3,3-difluoro-1-[(1-methylcyclobutyl)methyl]-4-piperidyl]pyrazol-4-yl]methyl]-2-oxo-benzo[cd]indol-1-yl]piperidine-2,6-dione], where the note is “96 h”, the half-inhibitory concentration (IC50) was under 1 nM.

`CC1(CN2CCC(n3cc(Cc4ccc5c6c(cccc46)C(=O)N5C4CCC(=O)NC4=O)cn3)C(F)(F)C2)CCC1` (single isomer, unassigned) [Compound 187, 3-[6-[[1-[3,3-difluoro-1-[(1-methylcyclobutyl)methyl]-4-piperidyl]pyrazol-4-yl]methyl]-2-oxo-benzo[cd]indol-1-yl]piperidine-2,6-dione]: the concentration for half-maximal inhibition (IC50) was under 1 nM.

With `O=C1CCC(N2C(=O)c3cccc4c(Cc5ccc(CN6CCN(c7ccccc7F)CC6)cc5)ccc2c34)C(=O)N1` (single isomer, unassigned) [Compound 189, 3-[6-[[4-[[4-(2-fluorophenyl)piperazin-1-yl]methyl]phenyl]methyl]-2-oxo-benzo[cd]indol-1-yl]piperidine-2,6-dione], the IC50 is under 1 nM.

With `O=C1CCC(N2C(=O)c3cccc4c(Cc5ccc(CN6CCN(c7ccccc7F)CC6)cc5)ccc2c34)C(=O)N1` (single isomer, unassigned) [Compound 190, 3-[6-[[4-[[4-(2-fluorophenyl)piperazin-1-yl]methyl]phenyl]methyl]-2-oxo-benzo[cd]indol-1-yl]piperidine-2,6-dione], the 50% inhibitory concentration (IC50) is under 100 nM.

For `O=C1CC[C@H](N2C(=O)c3cccc4c(Cc5ccc(CN6CCC7(CCCO7)CC6)cc5)ccc2c34)C(=O)N1` (single isomer, unassigned) [Compound 216, 3-[6-[[4-(1-oxa-8-azaspiro[4.5]decan-8-ylmethyl)phenyl]methyl]-2-oxo-benzo[cd]indol-1-yl]piperidine-2,6-dione], the 50% inhibitory concentration (IC50) (96 h) is under 1 nM.

On to `O=C1CCC(N2C(=O)c3cccc4c(Cc5ccc(CN6CCC7(CCCO7)CC6)cc5)ccc2c34)C(=O)N1` (single isomer, unassigned) [Compound 217, 3-[6-[[4-(1-oxa-8-azaspiro[4.5]decan-8-ylmethyl)phenyl]methyl]-2-oxo-benzo[cd]indol-1-yl]piperidine-2,6-dione], for which the IC50 (96 h) was under 1 nM.

For `O=C1CC[C@H](N2C(=O)c3cccc4c(Cc5ccc(CN6CCOCC6)cc5)ccc2c34)C(=O)N1` (single isomer, unassigned) [Compound 219, 3-(6-(4-(morpholinomethyl)benzyl)-2-oxobenzo[cd]indol-1(2H)-yl)piperidine-2,6-dione], the half-inhibitory concentration (IC50) (96 h) was under 1 nM.
